The values that follow come from ChEMBL document CHEMBL1201862, “PubChem BioAssay data set” (2004).

Some test systems named below: K562; LOX IMVI; OVCAR-5; KM12; 786-0; TK-10; NCI-H522; UACC-62; DMS-114; KM-20L2; HL-60; NCI-H460; CCRF-CEM; NCI-H226; SF-539; SNB-78; M19-MEL; DLD-1; NCI/ADR-RES; MDA-MB-435.
Common to all, as to assay: NCI tumour cell line growth inhibition, 48 h

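Five concentrations, 48 hours, 96-well plates. GI50 = concentration required for 50% inhibition of growth.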 Calls of active or inactive are those of the source. Rule as the data show it: active = GI50 up to about 1.1 µM and inactive = higher.

Regarding `Nc1ccc2nc(NCc3ccc(F)cc3)cnc2c1`, the GI50 with K562, in the test on LOX IMVI, in the test on OVCAR-5, with KM12, in the test with 786-0 and in the test with TK-10 was > 100 µM (inactive) in each case. Besides, the GI50 in the test on NCI-H522 is > 100 µM (inactive); in the test on UACC-62, > 100 µM (inactive); in the test on DMS-114, 75.5 µM (inactive); in the test with KM-20L2 it was > 100 µM (inactive); in the test with HL-60 it was 54.1 µM (inactive); in the test on NCI-H460, > 100 µM (inactive). In addition, the GI50 is > 100 µM (inactive) with CCRF-CEM, > 100 µM (inactive) with NCI-H226, 79.3 µM (inactive) in the test with SF-539 and 75.7 µM (inactive) in the test on SNB-78.

Turning to `O=C(CCc1cc(-c2ccccc2)[nH]c(=S)n1)Nc1ccccc1[N+](=O)[O-]`, the GI50 with K562, in the test with M19-MEL, in the test with LOX IMVI, in the test on OVCAR-5, with KM12 and with 786-0 was > 100 µM (inactive) throughout. Further, the GI50 in the test on TK-10, in the test with NCI-H522, in the test on UACC-62, in the test on DMS-114, in the test with KM-20L2 and with HL-60 was > 100 µM (inactive) each time. Further, the GI50 in the test on NCI-H460, with CCRF-CEM, with NCI-H226, in the test on SF-539 and in the test with SNB-78 was > 100 µM (inactive) in each case.

Take `O=C1c2ccccc2C(=O)N1C/C=N/NS(=O)(=O)c1ccc(Cl)cc1`: the GI50 with K562, in the test on M19-MEL, in the test on LOX IMVI, in the test on 786-0, in the test with TK-10 and in the test with NCI-H522 was > 100 µM (inactive) in each case. Moreover, the GI50 in the test on UACC-62, with DMS-114, in the test with KM-20L2, in the test with HL-60, in the test with NCI-H460 and in the test with CCRF-CEM was > 100 µM (inactive) throughout. Besides, the GI50 was > 100 µM (inactive) in the test on DLD-1, 31.7 µM (inactive) with NCI-H226 and > 100 µM (inactive) in the test on SF-539.

In the case of `CCN(CC)C(=O)c1cccc2c(OC)ccc(OC)c12`, the GI50 in the test on K562, in the test with M19-MEL, in the test on LOX IMVI, in the test with OVCAR-5, with KM12 and in the test with 786-0 was > 100 µM (inactive) in each case. In addition, the GI50 in the test on TK-10, with NCI-H522, in the test on UACC-62, in the test with DMS-114, in the test on KM-20L2 and in the test with HL-60 was > 100 µM (inactive) each time. Also, the GI50 in the test with NCI-H460, in the test on CCRF-CEM, in the test on DLD-1 and in the test on NCI-H226 was > 100 µM (inactive) in each case.

For the compound `CC1(C)C(=NNC(=S)NN)C(C)(C)C1=NNC(=S)NN`, the GI50 in the test with K562 is 43.2 µM (inactive); in the test on M19-MEL it was > 100 µM (inactive); in the test with LOX IMVI, > 100 µM (inactive); in the test on OVCAR-5 it was > 100 µM (inactive); with 786-0, > 100 µM (inactive); in the test with TK-10, > 100 µM (inactive). The GI50 with NCI-H522 is 75 µM (inactive); in the test with UACC-62, > 100 µM (inactive); with DMS-114, > 100 µM (inactive); with KM-20L2 it was > 100 µM (inactive); with HL-60, > 10 µM (inactive); in the test on CCRF-CEM it was 60.8 µM (inactive). For the same compound, the results for the GI50 in the test on DLD-1, with NCI-H226 and with SF-539 were > 100 µM (inactive), 4.9 µM (inactive) and > 100 µM (inactive), respectively.

Turning to `C/C(=C\Cc1cc(O)ccc1O)CCc1c(C)c(O)c(O)c(C=O)c1C` [PANICEIN C], the GI50 was > 100 µM (inactive) with K562; 17.7 µM (inactive) in the test with M19-MEL; 20.3 µM (inactive) in the test on KM12; 25.6 µM (inactive) in the test with 786-0; 48.2 µM (inactive) with TK-10; 5.24 µM (inactive) with NCI-H522. Besides, the GI50 in the test on DMS-114 is 18 µM (inactive); in the test with KM-20L2, 37.5 µM (inactive); in the test with HL-60 it was > 100 µM (inactive); in the test on NCI-H460 it was 23.8 µM (inactive); with CCRF-CEM, 3.28 µM (inactive); in the test on DLD-1, 21.1 µM (inactive). The values for the GI50 with NCI-H226 and in the test with SF-539 were 34.5 µM (inactive) and 18.4 µM (inactive), respectively.

Regarding `CCOC(=O)/C(=C/c1ccc(C(=O)OC)cc1)N(CC)CC`, the GI50 with K562 is 26.2 µM (inactive); in the test with M19-MEL, 51.1 µM (inactive); with LOX IMVI, 63.2 µM (inactive); in the test with OVCAR-5, > 100 µM (inactive); in the test with KM12 it was 41.3 µM (inactive); with 786-0 it was 41 µM (inactive). The GI50 in the test on TK-10 is 71.6 µM (inactive); in the test with NCI-H522 it was 37.8 µM (inactive); in the test on UACC-62, 53.5 µM (inactive); in the test on DMS-114, 32.3 µM (inactive); with KM-20L2, 31.2 µM (inactive); in the test with HL-60 it was 27.4 µM (inactive). Besides, the GI50 in the test with CCRF-CEM was 30.6 µM (inactive); in the test on NCI-H226, 35.1 µM (inactive); with SF-539, 25.3 µM (inactive); with SNB-78, 24.4 µM (inactive).

As for `O=C1c2ccccc2-c2nc(-c3cccs3)cc3c2c1nc1ccccc13`, the GI50 with K562 was 13.5 µM (inactive); with LOX IMVI, 8.24 µM (inactive); in the test with OVCAR-5, 36.7 µM (inactive); with KM12, 11.4 µM (inactive); in the test with 786-0, 35.8 µM (inactive); in the test with NCI/ADR-RES, 74.6 µM (inactive). Also, the GI50 in the test on TK-10 is > 100 µM (inactive); in the test with NCI-H522, 12.7 µM (inactive); in the test with UACC-62 it was 5.41 µM (inactive); in the test with MDA-MB-435 it was 2.01 µM (inactive); in the test with HL-60 it was 5.42 µM (inactive); in the test on NCI-H460, 4.69 µM (inactive). Also, the GI50 in the test on CCRF-CEM was 22.3 µM (inactive); with NCI-H226 it was 47.8 µM (inactive); with SF-539, 24.5 µM (inactive).

Take `COc1ccc2cc(CNCCCN3CCN(CCCNCc4ccc5cc(OC)ccc5c4)CC3)ccc2c1`: the GI50 is 0.198 µM (active) in the test with K562; 0.55 µM (active) in the test on LOX IMVI; 1.17 µM (inactive) with OVCAR-5; 0.789 µM (active) in the test on KM12; 1.55 µM (inactive) with 786-0; 2.21 µM (inactive) in the test on NCI/ADR-RES. Moreover, the GI50 was 1.89 µM (inactive) with TK-10; 2.24 µM (inactive) with NCI-H522; 0.569 µM (active) with UACC-62; 1.6 µM (inactive) in the test on MDA-MB-435; 0.24 µM (active) in the test with HL-60; 0.83 µM (active) in the test with NCI-H460. Also, the GI50 was 0.45 µM (active) in the test on CCRF-CEM, 1.91 µM (inactive) in the test on NCI-H226 and 1.81 µM (inactive) in the test on SF-539.

With `CS(=O)(=O)NNS(=O)(=O)c1ccccc1`, the GI50 in the test on K562, in the test with M19-MEL, with LOX IMVI, in the test with KM12, in the test on 786-0 and in the test with TK-10 was > 100 µM (inactive) throughout. In addition, the GI50 in the test with NCI-H522, in the test with UACC-62, with DMS-114, in the test with KM-20L2, in the test with HL-60 and with NCI-H460 was > 100 µM (inactive) in each case. Also, the GI50 in the test with CCRF-CEM, in the test with DLD-1, with NCI-H226 and in the test with SF-539 was > 100 µM (inactive) throughout.

As to `CN[C@@H](C)[C@@H](N)c1ccccc1`, the GI50 in the test on K562, with LOX IMVI, with 786-0, in the test with TK-10, in the test on NCI-H522 and in the test with UACC-62 was > 100 µM (inactive) throughout. Further, the GI50 in the test with NCI-H460, with CCRF-CEM, in the test with DLD-1, in the test on NCI-H226, in the test with SF-539 and in the test with SNB-78 was > 100 µM (inactive) in each case.

Turning to `CC(C)(C)OC(=O)NC(CS(=O)(=O)O)C(=O)O` (configuration not stated), the GI50 in the test on K562, with LOX IMVI, with OVCAR-5, in the test with KM12, in the test with 786-0 and with NCI/ADR-RES was > 100 µM (inactive) in each case. In addition, the GI50 in the test on TK-10, in the test with NCI-H522, with UACC-62, with MDA-MB-435, in the test with HL-60 and with NCI-H460 was > 100 µM (inactive) in each case. The GI50 with CCRF-CEM, in the test with NCI-H226 and with SF-539 was > 100 µM (inactive) each time.

As for `CCc1n[nH]c(=O)n1/N=C/c1ccccc1Cl`, the GI50 with K562 is > 100 µM (inactive); with LOX IMVI, > 100 µM (inactive); in the test with OVCAR-5, > 100 µM (inactive); in the test on KM12, 93.8 µM (inactive); with 786-0, > 100 µM (inactive); in the test with NCI/ADR-RES it was > 100 µM (inactive). For the same compound, the GI50 with TK-10 was > 100 µM (inactive); in the test on NCI-H522 it was > 100 µM (inactive); in the test with UACC-62, 53.6 µM (inactive); in the test on MDA-MB-435 it was 85.7 µM (inactive); in the test on HL-60 it was > 100 µM (inactive); with NCI-H460, > 100 µM (inactive). Also, the GI50 with CCRF-CEM is > 100 µM (inactive); in the test with NCI-H226, 88.5 µM (inactive); in the test on SF-539 it was > 100 µM (inactive).
